Reference: article PMC4420247, “8-Triazolylpurines: Towards Fluorescent Inhibitors of the MDM2/p53 Interaction” (PLoS ONE, 2015)

Key:
[1] = target: T1, MDM2 (Homo sapiens, UniProt Q00987); experiment: FP displacement of Texas Red-labelled p53 peptide from MDM2; binding confirmed by WaterLOGSY NMR
[2] = target: T1, MDM2; experiment: FP displacement of Texas Red-labelled p53 peptide from MDM2; assay type: binding

T1 sequence (Q00987 whole entry): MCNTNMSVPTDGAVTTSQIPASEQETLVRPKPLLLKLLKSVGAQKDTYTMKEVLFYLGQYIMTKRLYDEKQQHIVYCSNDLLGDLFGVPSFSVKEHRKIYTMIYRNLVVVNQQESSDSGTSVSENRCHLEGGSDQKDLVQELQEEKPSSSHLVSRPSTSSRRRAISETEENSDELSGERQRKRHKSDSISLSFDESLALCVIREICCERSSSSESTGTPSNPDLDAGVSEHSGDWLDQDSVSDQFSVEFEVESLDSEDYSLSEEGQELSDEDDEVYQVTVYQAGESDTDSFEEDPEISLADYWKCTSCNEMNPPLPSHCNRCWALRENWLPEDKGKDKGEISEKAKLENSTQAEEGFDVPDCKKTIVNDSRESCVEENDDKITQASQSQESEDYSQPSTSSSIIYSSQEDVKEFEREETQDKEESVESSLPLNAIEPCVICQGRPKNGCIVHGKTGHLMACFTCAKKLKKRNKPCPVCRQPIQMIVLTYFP

Structure (SMILES) | IC50 [1] [µM] | IC50 [2] [µM]
CCCNc1nc(NCC(=O)OCC)c2nc(-c3cn(C)nn3)n(C3Cc4ccccc4C3)c2n1 [14f, 6-(Ethoxy-carbonyl-methylamino)-9-(2-indanyl)-8-(1-methyl-1H-1,2,3-triazol-4-yl)-2-(1-propylamino)purine] | 10 | 
CCCNc1nc(N)c2nc(-c3cn(C)nn3)n(C3Cc4ccccc4C3)c2n1 [14j] |  | 56
